Experiments:
[1] = molecular target: T1, human HIPK2 (Homo sapiens, UniProt Q9H2X6); assay: HIPK2 enzyme assay (ADP-Glo); type: biochemical; details: ADP-Glo, ATP 5 μM; read-out: HIPK2 IC50
T1 construct: Recombinant human HIPK2 (1-640); GST (N); purchased SignalChem H04-11BG; host or cells: Sf9 insect cells
Description: The ability of compounds to inhibit human HIPK2 kinase activities was determined using a commercially available ADP-Glo™ Kinase Assay kit (Promega, Cat #V9102) according to the manufacturer's protocol.
(§1) Recombinant human HIPK2 (1-640) (expressed in Sf9 insect cells with an N-terminal GST tag) was purchased from SignalChem (Cat #H04-11BG). Recombinant full length human MBP (expressed in E. Coli cells with an N-terminal GST tag) was purchased from SignalChem (Cat #M42-54G). This assay, run in a 384-well plate format, is a generic method for measuring kinase activities using an ADP-Glo Kinase Assay Kit. The basic assay procedure involves two steps: (1) Enzymatic step: inhibitors are incubated with the kinase and then ATP (included in the ADP-Glo Kinase Assay Kit) and the MBP protein are added to start the enzymatic reaction; (2) Detection step: after the kinase reaction, first ADP-Glo™ Reagent is added to terminate the kinase reaction and deplete the remaining ATP. Second, the Kinase Detection Reagent is added to simultaneously convert ADP to ATP and allow the newly synthesized ATP to be measured using a luciferase/luciferin reaction. The light generated is measured using a luminometer.
(§2) Briefly, HIPK2 (1 nM) in the enzymatic buffer solutions (40 mM Tris, pH 7.5, 20 mM MgCl2, 0.1 mg/ml BSA, 50 μM DTT) were mixed with various concentrations of inhibitors (dissolved in 100% DMSO). These solutions were incubated for 30 minutes at 25° C., and subsequently a mixture of substrate peptide and ATP was added with the final peptide and ATP concentrations at 0.05 mg/ml and 5 μM, respectively. The final reaction mixture of enzyme-substrate-ATP-compound was incubated for 90 minutes at 25° C.
(§3) Afterwards ADP-Glo™ Reagent was added and the mixture was incubated at 25° C. for 60 minutes. Then Kinase Detection Reagent was added, and the final mixture was incubated at 25° C. for 60 minutes. The luminescence signal of the final solution was measured on an Envision instrument (PerkinElmer). The percent (%) inhibition at each concentration of a compound is calculated relative to the luminescence signal in the Max and Min control wells contained within each assay plate. […] The concentrations and percent inhibition values for a test compound are plotted and the concentration of the compound required to achieve 50% inhibition (IC50) is determined with a four-parameter logistic dose response equation.

[2] = molecular target: T2, human DYRK1A (Homo sapiens, UniProt Q13627); assay: DYRK1A enzyme assay (ADP-Glo); type: biochemical; details: ADP-Glo, ATP 60 μM; read-out: DYRK1A IC50
T2 construct: Recombinant full-length DYRK1A (expressed in E. Coli cells with an N-terminal GST tag); GST (N); purchased SignalChem D09-10G; host or cells: E. coli
Description: The ability of compounds to inhibit human DYRK1A kinase activities was determined using a commercially available ADP-Glo™ Kinase Assay kit (Promega, Cat #V9102) according to the manufacturer's protocol.
as §1, with “full-length DYRK1A” for “human HIPK2 (1-640) (expressed in Sf9 insect cells with an N-terminal GST tag) was purchased from SignalChem (Cat #H04-11BG). Recombinant full length human MBP”, “#D09-10G). The DYRK substrate peptide (DYRKtide, sequence: […]) was purchased from SignalChem (Cat #D96-58).” for “#M42-54G).”, “DYRKtide” for “MBP protein”
as §2, with “Briefly, DYRK1A (3” for “Briefly, HIPK2 (1”, “at 20 μM” for “at 0.05 mg/ml”, “and 60” for “and 5”, “for 60” for “for 90”
as §3, with “added” for “added,”

T1 sequence (Q9H2X6 1-640): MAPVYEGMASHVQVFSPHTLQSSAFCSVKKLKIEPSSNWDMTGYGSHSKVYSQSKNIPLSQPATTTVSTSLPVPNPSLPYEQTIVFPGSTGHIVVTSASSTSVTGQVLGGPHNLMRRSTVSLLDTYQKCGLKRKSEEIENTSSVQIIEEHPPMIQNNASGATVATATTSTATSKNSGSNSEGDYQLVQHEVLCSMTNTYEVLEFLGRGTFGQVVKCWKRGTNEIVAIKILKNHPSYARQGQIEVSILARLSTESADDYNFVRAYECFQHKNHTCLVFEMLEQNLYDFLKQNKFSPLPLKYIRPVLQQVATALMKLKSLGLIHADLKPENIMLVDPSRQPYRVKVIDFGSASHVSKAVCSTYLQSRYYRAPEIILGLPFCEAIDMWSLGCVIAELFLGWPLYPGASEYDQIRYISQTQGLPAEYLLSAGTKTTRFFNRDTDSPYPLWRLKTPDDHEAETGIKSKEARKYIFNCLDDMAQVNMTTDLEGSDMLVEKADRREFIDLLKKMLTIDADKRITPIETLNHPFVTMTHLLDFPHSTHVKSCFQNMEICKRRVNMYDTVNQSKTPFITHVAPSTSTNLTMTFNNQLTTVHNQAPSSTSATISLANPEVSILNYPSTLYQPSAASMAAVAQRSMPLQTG

CN1C(=O)/C(=C/c2ccc3c(c2)OCO3)N=C1N(C)c1ccccc1 [Example 3, (Z)-5-(benzo[d][1,3]dioxol-5-ylmethylene)-3-methyl-2-(methyl(phenyl)amino)-3,5-dihydro-4H-imidazol-4-one]
IC50 [1]: > 10000 nM
IC50 [2]: 1000 to 10000 nM

CN(C1=N/C(=C\c2ccc3c(c2)OCCO3)C(=O)N1)c1ccccc1 [Example 8, (Z)-5-((2,3-dihydrobenzo[b][1,4]dioxin-6-yl)methylene)-2-(methyl(phenyl)amino)-3,5-dihydro-4H-imidazol-4-one]
IC50 [1]: > 10000 nM
IC50 [2]: 1000 to 10000 nM

O=C1NC(Nc2ccccc2)=N/C1=C\c1ccc(=O)[nH]c1 [Example 9, (Z)-5-((5-oxo-2-(phenylamino)-1,5-dihydro-4H-imidazol-4-ylidene)methyl)pyridin-2(1H)-one]
IC50 [1]: > 10000 nM
IC50 [2]: 100 to 1000 nM

O=C1NC(N(CC2CC2)c2ccccc2)=N/C1=C\c1ccc2c(c1)OCO2 [Example 10, (Z)-5-(benzo[d][1,3]dioxol-5-ylmethylene)-2-((cyclopropylmethyl)(phenyl)amino)-3,5-dihydro-4H-imidazol-4-one]
IC50 [1]: > 10000 nM
IC50 [2]: 100 to 1000 nM

COc1ccc(N(C)C2=N/C(=C\c3ccc4c(c3)OCO4)C(=O)N2)cc1 [Example 12, (Z)-5-(benzo[d][1,3]dioxol-5-ylmethylene)-2-((4-methoxyphenyl)(methyl)amino)-3,5-dihydro-4H-imidazol-4-one]
IC50 [1]: > 10000 nM
IC50 [2]: 100 to 1000 nM

O=C1NC(Nc2ccccc2)=N/C1=C\c1ccc2scnc2c1 [Example 14, (Z)-5-(benzo[d]thiazol-5-ylmethylene)-2-(phenylamino)-3,5-dihydro-4H-imidazol-4-one]
IC50 [1]: > 10000 nM
IC50 [2]: > 10000 nM

O=C1NC(Nc2ccccc2)=N/C1=C\c1cncs1 [Example 15, (Z)-2-(phenylamino)-5-(thiazol-5-ylmethylene)-3,5-dihydro-4H-imidazol-4-one]
IC50 [1]: > 10000 nM
IC50 [2]: > 10000 nM

O=C1NC(Nc2ccccc2)=N/C1=C\c1ccc2nccnc2c1 [Example 16, (Z)-2-(phenylamino)-5-(quinoxalin-6-ylmethylene)-3,5-dihydro-4H-imidazol-4-one]
IC50 [1]: 1000 to 10000 nM
IC50 [2]: < 100 nM

CN(C1=N/C(=C\c2ccc3c(c2)OC(F)(F)O3)C(=O)N1)c1ccccc1 [Example 17, (Z)-5-((2,2-difluorobenzo[d][1,3]dioxol-5-yl)methylene)-2-(methyl(phenyl)amino)-3,5-dihydro-4H-imidazol-4-one]
IC50 [1]: > 10000 nM
IC50 [2]: > 10000 nM

CN(C1=N/C(=C\c2ccc3c(c2)OCO3)C(=O)N1)c1cccnc1 [Example 18, (Z)-5-(benzo[d][1,3]dioxol-5-ylmethylene)-2-(methyl(pyridin-3-yl)amino)-3,5-dihydro-4H-imidazol-4-one]
IC50 [1]: > 10000 nM
IC50 [2]: 100 to 1000 nM

CN(CC1CC1)C1=N/C(=C\c2ccc3c(c2)OCCO3)C(=O)N1 [Example 19, (Z)-2-((cyclopropylmethyl)(methyl)amino)-5-((2,3-dihydrobenzo[b][1,4]dioxin-6-yl)methylene)-3,5-di hydro-4H-imidazol-4-one]
IC50 [1]: > 10000 nM
IC50 [2]: 100 to 1000 nM

COc1ccc(NC2=N/C(=C\c3ccc4ncsc4c3)C(=O)N2)cc1 [Example 25, (Z)-5-(benzo[d]thiazol-6-ylmethylene)-2-((4-methoxyphenyl)amino)-3,5-dihydro-4H-imidazol-4-one]
IC50 [1]: 100 to 1000 nM

O=C1NC(NCc2ccccc2)=N/C1=C\c1ccc2ncsc2c1 [Example 31, (Z)-5-(benzo[d]thiazol-6-ylmethylene)-2-(benzylamino)-3,5-dihydro-4H-imidazol-4-one]
IC50 [1]: 100 to 1000 nM

O=C1NC(NCC2CC2)=N/C1=C\c1ccc2ncsc2c1 [Example 34, (Z)-5-(benzo[d]thiazol-6-ylmethylene)-2-((cyclopropylmethyl)amino)-3,5-dihydro-4H-imidazol-4-one]
IC50 [1]: 1000 to 10000 nM

O=C1NC(Nc2ccc3ncsc3c2)=N/C1=C\c1ccc2scnc2c1 [Example 57, (Z)-5-(benzo[d]thiazol-5-ylmethylene)-2-(benzo[d]thiazol-6-ylamino)-3,5-dihydro-4H-imidazol-4-one]
IC50 [1]: 100 to 1000 nM

From patent US12643887B2, “Heterocyclic derivatives with cardiomyocyte proliferation activity for treatment of heart diseases” (Tongji University, priority 2019, dated 2026)
